Reference: patent publication US20090029856A1, “Hinokitiol As A Plant Pesticide” (priority 2007, published 2009)
In brackets after ≈: the same amount, converted by molar mass.

Columns and labels:
[1] = system: chickweed (Stellaria media); assay: Pot study, phytotoxicity and % weed control; type: in vivo
Procedure: (§1) A pot study was conducted to test the phytotoxicity of hinokitiol on both broadleaved and grass weed. Ten seeds of either chickweed (Stellaria media) or annual bluegrass (Poa annua) were planted in a plastic pot filled with potting mix. The 2-inch tall plants grown under growth lights (12-h light/12-h dark) at room temperature were sprayed with hinokitiol solutions containing 0.5, 1.0, 2.0, 3.0, 4.0 and 5.0 mg/mL hinokitiol in 50% ethanol. A solution of 50% ethanol without hinokitiol was used as a control treatment. The plants were kept at room temperature under growth lights and observed at two time points—4 and 14 days after treatment—for visual symptoms of phytotoxicity and % weed control.

[2] = system: annual bluegrass (Poa annua); assay: Pot study, phytotoxicity and % weed control; type: in vivo
Procedure: as §1

[3] = Analysis of hinokitiol residue on green beans after sun exposure; type: physicochemical, green bean; details: for [hinokitiol] in the HPLC injection solution: green bean leaves
Procedure: The goal of this study was to know stability of hinokitiol on plant leaves, instead of vials, after sun exposure. The following procedure was used • 1. A 3.2% Hinokitiol formulation containing propylene glycol, nonphytotoxic ethoxylate fatty esters; butanol, EDTA, UV protection agent, 1% sodium hydroxide and water for a total of 100% was used. The total weight of each formulation was 20 grams. • 2. Spraying solution: 10 mL of 100-fold dilution of the above formulation. • 3. Green bean plants: 6 plants with 10-15 leaves. • 4. Two plants were evenly sprayed 10 mL solution. • 5. Three plants was stored in dark incubator (25° C.), another three plants was put on the parking lot with full sun exposure (28˜35° C.). • 6. After 6 h, leaves were cut and punched into the same size discs (Ø21 mm). Discs from sun-exposed green bean and darkness green bean were 118 and 129, respectively. • 7. Discs were ground in a mortar and transferred into a separation funnel. The mortar and pestle were sequentially washed with 2 N HCl and ethyl acetate. The hinokitiol was extracted three times (3×50 mL) by ethyl acetate under 2N HCl (100 mL). The organic phase was dried by anhydrous sodium sulfate. After filtration and evaporation, the organic phase gave out a residue. The residue was dissolved by ethanol (1.5 mL). This solution was directly used for HPLC analysis. Injection volume was 10 μL.
• Darkness: leaf disc 129 • Sun exposure: leaf disc 118 • Darkness: Peak area (AU): 50463 • Sun exposure: Peak Area (AU); 13197 • Standard line: y=66.367X-52.019 (R^2=0.9999, X=μg/ml of hinokitiol standard solution, 2 μL injection volume; y=peak area)
• [hinokitiol] from darkness=152 μg/mL*1.5 mL/129 Disc=1.77 μg/Disc • [hinokitiol] from sun exposure=40 μg/mL*1.5 mL/118 Disc =0.51 μg/Disc
• [hinokitiol] from sun exposure/[hinokitiol] from darkness=0.51/1.77=0.29

[4] = system: Botrytis cinerea; assay: Spiral gradient dilution method, inhibition of mycelial growth and spore germination; type: cell-based
Procedure: In this method, a potato dextrose agar (PDA) medium is plated with the test solution by means of a spiral plater, which applies the compound in a 2.5-log dilution in a continuous radial concentration gradient. Fungal inoculum in two replicates is then placed along radial lines across the gradient. […] EC50 values were calculated based on these measurements. The fungi evaluated were members of the following families Anamorphic Phyllachoraceae (Colletotrichum acutatum), Anamorphic Sclerotiniaceae (Botrytis cinerea), Mitosporic fungi (Verticillium dahlias; Microphomina sp.), and Oomycota (Phytophtora capsici). Hinokitiol (5 mg/mL) was dissolved in acetone, and acetone alone was also used as a control to check for non-specific inhibition.

[5] = system: Botrytis cinerea (BOT); assay: Spiral plating method, growth inhibition; type: cell-based; details: B. cinerea
Procedure: (§2) The spiral plating method was used to deposit the fungicides on PDA and TSA plates with exponential logarithmic decrease of product concentration from the centre to the edge of the plate. The plates were left standing for four hours and inoculated with the fungus and bacteria. There were four repetitions of the same microorganism done per plate and there was one replica of each plate.
(§3) The plates were cultured for 3 days before measurements of growth were taken. The ‘distance of inhibition’ indicates the length of the zone with no growth, measured from center edge of the agar, the ‘colony width ratio’ indicates the ratio of the width of growth measured at the zero concentration and width at the highest concentration with growth.

[6] = system: Erwinia carotovora (ERWC); assay: Spiral plating method, growth inhibition; type: cell-based; details: E. carotovora; average distance of inhibition / 28 mm × 100
Procedure: as §2, §3

[7] = system: Pseudomonas viridilivida (PSVI); assay: Spiral plating method, growth inhibition; type: cell-based; details: P. viridilivida
Procedure: as §2, §3

[8] = system: Monilinia fructicola (MON); assay: Spiral plating method, growth inhibition; type: cell-based; details: M. fructicola; average distance of inhibition / 28 mm × 100
Procedure: as §2, §3

[9] = system: Xanthomonas campestris (X-CAM); assay: Spiral plating method, growth inhibition; type: cell-based; details: average distance of inhibition / 28 mm × 100
Procedure: as §2, §3

[10] = system: Lactuca sativa (lettuce) seedlings; assay: High-throughput 96-well post-emergence herbicide assay; type: in vivo
Procedure: A high-throughput 96-well assay was used to test the efficacy of hinokitiol as a post-emergence, non-selective herbicide. Seedlings of Lactuca sativa (lettuce) were grown in 96-well plates under continuous light. Hinokitiol was added on the one-week old seedlings at a 5×-dilution series from 1 to 0 mg/mL, and the minimum concentration needed for killing the seedling was recorded the next day.

[11] = 0.5 mg/mL in 50% ethanol, 4 DAYS
[12] = 0.5 mg/mL in 50% ethanol, 14 DAYS
[13] = 1.0 mg/mL in 50% ethanol, 4 DAYS
[14] = 1.0 mg/mL in 50% ethanol, 14 DAYS
[15] = 2.0 mg/mL in 50% ethanol, 4 DAYS
[16] = 2.0 mg/mL in 50% ethanol, 14 DAYS
[17] = 3.0 mg/mL in 50% ethanol, 4 DAYS
[18] = 3.0 mg/mL in 50% ethanol, 14 DAYS
[19] = 4.0 mg/mL in 50% ethanol, 4 DAYS
[20] = 4.0 mg/mL in 50% ethanol, 14 DAYS
[21] = 5.0 mg/mL in 50% ethanol, 4 DAYS
[22] = 5.0 mg/mL in 50% ethanol, 14 DAYS

CC(C)c1cccc(=O)c(O)c1 [Hinokitiol, 4-isopropyl tropolone]
Stellaria media (% control) [1, 11]: 1%
Stellaria media (% control) [1, 12]: 0%
Stellaria media (% control) [1, 13]: 2%
Stellaria media (% control) [1, 14]: 10%
Stellaria media (% control) [1, 15]: 10%
Stellaria media (% control) [1, 16]: 55%
Stellaria media (% control) [1, 17]: 95%
Stellaria media (% control) [1, 18]: 100%
Stellaria media (% control) [1, 19]: 98%
Stellaria media (% control) [1, 20]: 100%
Stellaria media (% control) [1, 21]: 100%
Stellaria media (% control) [1, 22]: 100%
Poa annua (% control) [2, 11]: 0%
Poa annua (% control) [2, 12]: 0%
Poa annua (% control) [2, 13]: 1%
Poa annua (% control) [2, 14]: 0%
Poa annua (% control) [2, 15]: 2%
Poa annua (% control) [2, 16]: 5%
Poa annua (% control) [2, 17]: 10%
Poa annua (% control) [2, 18]: 15%
Poa annua (% control) [2, 19]: 30%
Poa annua (% control) [2, 20]: 25%
Poa annua (% control) [2, 21]: 50%
Poa annua (% control) [2, 22]: 50%
Relative stability: [hinokitiol] from sun exposure/[hinokitiol] from darkness ([3]; 6 h): 0.29
hinokitiol concentration on each disc of green beans ([3]; 6 h darkness, 25° C.): 1.77 μg/Disc
hinokitiol concentration on each disc of green beans ([3]; 6 h sun exposure, 28-35° C.): 0.51 μg/Disc
hinokitiol concentration per unit area (Disc) relative to that stored in the darkness at 25° C. ([3]; after 6 h sun exposure at 28-35° C.): 29%
[hinokitiol] in the HPLC injection solution ([3]; 6 h darkness, 25° C.): 152 µg/mL
[hinokitiol] in the HPLC injection solution ([3]; 6 h sun exposure, 28-35° C.): 40 µg/mL
time the residue on the plant would last ([3]; green bean plants): at least one day
inhibition in spore germination ([4]; B. cinerea, hinokitiol at concentrations 5-0.05 mg/mL, light microscope): 100%
EC50 ([4]; Botrytis cinerea, PDA, 20° C., hinokitiol in acetone): 31 µg/mL (≈ 189 µM)
inhibition of growth [5]: did not inhibit
% inhibition of growth [6]: 62%
inhibition of growth [7]: did not inhibit
% inhibition of growth [8]: 48%
% inhibition of growth [9]: 83%
effect on lettuce seedlings ([10]; concentration of 8 mg/L): not harmful to the plant
minimum concentration needed for killing the seedling ([10]; one-week old lettuce seedlings, recorded the next day): 40 mg/L
